According to PubChem BioAssay (NCI):
Values joined by “and” are separate entries in the source; they are usually repeats but may differ in a detail not shown here. Equal entries are not always repeated.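 Exposure lasted 48 hours, with cells grown in 96-well plates and compounds tested at five concentrations. GI50 is the concentration that inhibits growth by half. TGI denotes the concentration required for complete inhibition of growth.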

How the values were obtained:
Assay in all cases: DTP human tumour cell line panel, 48 h
CCRF-CEM leukemia = test system: CCRF-CEM leukemia
HOP-92 NSCLC = test system: HOP-92 NSCLC
MALME-3M melanoma = test system: MALME-3M melanoma
MOLT-4 leukemia = test system: MOLT-4 leukemia
OVCAR-5 ovarian = test system: OVCAR-5 ovarian
SK-MEL-28 melanoma = test system: SK-MEL-28 melanoma
SN12C renal = test system: SN12C renal
SR leukemia = test system: SR leukemia
TK-10 renal = test system: TK-10 renal
UACC-257 melanoma = test system: UACC-257 melanoma

Structure (SMILES)	GI50 (CCRF-CEM leukemia) [µM]	TGI (CCRF-CEM leukemia) [µM]	GI50 (HOP-92 NSCLC) [µM]	TGI (HOP-92 NSCLC) [µM]	GI50 (MALME-3M melanoma) [µM]	TGI (MALME-3M melanoma) [µM]	GI50 (MOLT-4 leukemia)	TGI (MOLT-4 leukemia) [µM]	GI50 (OVCAR-5 ovarian) [µM]	TGI (OVCAR-5 ovarian) [µM]	GI50 (SK-MEL-28 melanoma) [µM]	TGI (SK-MEL-28 melanoma) [µM]	GI50 (SN12C renal)	TGI (SN12C renal) [µM]	GI50 (SR leukemia)	TGI (SR leukemia) [µM]	GI50 (TK-10 renal) [µM]	TGI (TK-10 renal) [µM]	GI50 (UACC-257 melanoma) [µM]	TGI (UACC-257 melanoma) [µM]
O=C(O)CCC/C=C\C[C@H]1C=CC(=O)/C1=C/C[C@@H](O)CCc1cccc(C(F)(F)F)c1	0.465	10.8	3.32	8.2	4.75	19.3	2.21 µM	7.34	4.15	11.8	1.52	4.4	3.41 µM	26.8	0.604 µM	7.22	4.21	9.82	2.36	7.38
COc1cc2c(cc1OC)C(OC)N(C)c1c-2ccc2cc3c(cc12)OCO3 (configuration not stated)		13.4		5.76		20		16.1		11.8		33.5		21.1		> 75		> 75		50.2
COc1cc(Nc2ncc(F)c(Nc3ccc4c(n3)NC(=O)C(C)(C)O4)n2)cc(OC)c1OC	6.32	> 10	0.302	4.85	> 100	> 100	3.38 µM and 6.7 µM	> 100	3.85	> 10	> 100	> 100	0.667 µM and 2.86 µM	> 100	2.71 µM and > 10 µM	> 100	0.677	> 10	> 10	> 10
CCOC(=O)C(=O)Nc1ccc(Cl)cc1C		> 100		> 100		> 100		> 100		> 100		> 100		> 100		> 100		> 100		> 100
O=C(Nc1cccc(Cc2cccc(NC(=O)c3ccccc3)c2)c1)c1ccccc1		> 100		44.3		99.7		> 100		> 100		> 100		> 100		> 100		> 100		> 100
COc1ccc(C[C@@H]2NC[C@@H](O)[C@@H]2OC(C)=O)cc1	4.35			0.0448	3.97		2.81 µM		14.1	> 100		0.127	3.19 µM		6.9 µM	> 100		0.254	2.33	
Fc1ccc(-c2ncn(C3CCNCC3)c2-c2ccnc(Oc3ccc(F)c(F)c3)n2)cc1	> 14.9	24.2	3.28	15.6	5.19	9.85	8.34 µM	> 19.1	7.78	> 25	4.57	8.79	6.24 µM	> 14.6	6.23 µM	13.4	5.09	11.1	4.76	9.15
